Columns and labels:
[1] = biological target: cGMP-specific 3',5'-cyclic phosphodiesterase (Homo sapiens, UniProt O76074); test: Inhibitory activity against phosphodiesterase 5 from human platelets
Homo sapiens = organism: Homo sapiens; test: In vitro inhibition of Thromboxane A2 synthesis in human platelet; type: functional
Phosphodiesterase 4 = Phosphodiesterase 4 (Rattus norvegicus, UniProt P14270+P14646+P14644+P54748); test: Inhibition of rat kidney Phosphodiesterase 4; type: protein assay
Phosphodiesterase 3 = Phosphodiesterase 3 (Homo sapiens, UniProt Q14432+Q13370); test: Inhibition of human platelet Phosphodiesterase 3
[2] = biological target: T1, cGMP-dependent 3',5'-cyclic phosphodiesterase (Rattus norvegicus, UniProt Q01062); test: Inhibition of rat brain Phosphodiesterase 2
T1 sequence (Q01062 whole entry): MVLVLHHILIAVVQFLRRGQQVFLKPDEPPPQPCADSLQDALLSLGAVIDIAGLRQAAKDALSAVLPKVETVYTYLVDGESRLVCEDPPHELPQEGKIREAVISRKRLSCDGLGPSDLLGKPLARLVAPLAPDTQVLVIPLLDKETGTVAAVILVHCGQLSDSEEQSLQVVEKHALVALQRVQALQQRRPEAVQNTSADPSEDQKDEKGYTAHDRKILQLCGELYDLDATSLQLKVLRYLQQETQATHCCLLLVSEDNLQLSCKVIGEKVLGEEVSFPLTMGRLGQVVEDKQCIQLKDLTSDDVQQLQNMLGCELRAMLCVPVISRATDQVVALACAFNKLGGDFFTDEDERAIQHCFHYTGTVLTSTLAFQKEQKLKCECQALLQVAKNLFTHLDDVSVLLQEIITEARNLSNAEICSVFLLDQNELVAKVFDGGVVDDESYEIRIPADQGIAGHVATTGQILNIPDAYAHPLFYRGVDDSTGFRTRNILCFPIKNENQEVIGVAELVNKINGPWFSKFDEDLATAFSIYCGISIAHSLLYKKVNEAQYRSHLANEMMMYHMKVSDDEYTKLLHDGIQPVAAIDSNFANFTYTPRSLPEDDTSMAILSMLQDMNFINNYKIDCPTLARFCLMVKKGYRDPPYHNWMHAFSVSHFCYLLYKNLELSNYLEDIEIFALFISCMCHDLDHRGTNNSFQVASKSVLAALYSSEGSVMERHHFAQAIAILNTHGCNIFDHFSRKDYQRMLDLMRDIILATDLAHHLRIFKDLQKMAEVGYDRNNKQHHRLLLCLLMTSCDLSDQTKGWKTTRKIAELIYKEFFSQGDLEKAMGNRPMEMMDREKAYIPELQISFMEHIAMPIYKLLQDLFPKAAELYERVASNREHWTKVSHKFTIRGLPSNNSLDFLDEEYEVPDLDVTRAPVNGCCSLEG

Phosphodiesterase 1 = Phosphodiesterase 1 (Bos taurus, UniProt Q01061+P14100); test: Inhibition of bovine aorta Phosphodiesterase 1; type: protein assay
Rattus norvegicus [3] = organism: Rattus norvegicus; test: Ex vivo inhibition of Thromboxane B2 production in A-23,187-Induced Rat Whole Blood; type: functional
Thromboxane-A synthase = biological target: T2, Thromboxane-A synthase (Homo sapiens, UniProt P24557); test: In vitro inhibition of Thromboxane A2 synthase in human platelet
T2 sequence (P24557 whole entry): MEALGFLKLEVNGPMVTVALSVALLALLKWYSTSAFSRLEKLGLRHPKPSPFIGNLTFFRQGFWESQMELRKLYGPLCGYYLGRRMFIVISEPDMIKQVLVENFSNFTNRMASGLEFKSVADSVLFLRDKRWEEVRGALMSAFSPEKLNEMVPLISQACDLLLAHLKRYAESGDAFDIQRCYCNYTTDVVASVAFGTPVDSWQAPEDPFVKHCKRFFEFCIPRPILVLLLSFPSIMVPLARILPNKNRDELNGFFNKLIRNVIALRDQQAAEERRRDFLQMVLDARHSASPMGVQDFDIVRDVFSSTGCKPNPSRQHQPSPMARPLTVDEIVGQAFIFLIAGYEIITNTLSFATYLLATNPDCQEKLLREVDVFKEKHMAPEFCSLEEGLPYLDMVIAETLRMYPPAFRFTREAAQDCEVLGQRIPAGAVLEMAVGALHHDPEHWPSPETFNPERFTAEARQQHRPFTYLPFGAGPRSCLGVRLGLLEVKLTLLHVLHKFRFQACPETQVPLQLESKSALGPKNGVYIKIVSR

Rattus norvegicus [4] = organism: Rattus norvegicus; test: In vitro inhibition of Thromboxane B2 production in A-23,187-Induced Rat Whole Blood; type: functional
Cyclooxygenase = Cyclooxygenase (Homo sapiens, UniProt P35354+P23219); test: Inhibitory activity against Prostaglandin G/H synthase; type: protein assay

IC50 [1] | SMILES | also measured
4.4 µM | c1cncc(-c2nc(NCC3CC3)c3ccccc3n2)c1 | –
0.11 µM | CS(=O)(=O)c1ccc2nc(-n3ccnc3)nc(NCc3ccccc3)c2c1 | –
0.12 µM | Clc1ccc2nc(-c3cccnc3)nc(NCc3ccco3)c2c1 | –
22 µM | CN1CCN(c2nc(NCc3ccccc3)c3ccccc3n2)CC1 | –
0.105 µM | Cc1ccc2nc(-c3cccnc3)nc(NCc3ccccc3)c2c1 | –
– | O=C(O)/C=C/c1ccc(Cn2ccnc2)cc1 [OZAGREL] | IC50 (Homo sapiens): 3.3 µM
2.5 µM | c1ccc(CNc2nc(-c3ccco3)nc3ccccc23)cc1 | –
0.01 µM | Cl.Cl.O=[N+]([O-])c1ccc2nc(-c3cccnc3)nc(NCc3ccccc3)c2c1 | IC50 (Phosphodiesterase 4): > 3 µM; IC50 (Phosphodiesterase 3): > 3 µM; IC50 [2]: > 3 µM; IC50 (Phosphodiesterase 1): > 3 µM
2.4 µM | c1ccc(Nc2nc(-c3cccs3)nc3ccccc23)cc1 | –
4.6 µM | Clc1nc(NCc2ccccc2)c2ccccc2n1 | –
18.5 µM | c1ccc(COc2nc(-c3ccccc3)nc3ccccc23)cc1 | –
15 µM | OCCCCCNc1nc(-c2ccccc2)nc2ccccc12 | –
– | CCCOc1ccccc1-c1nc2[nH]nnc2c(=O)[nH]1 [ZAPRINAST] | IC50 (Phosphodiesterase 3): 660 µM; IC50 [2]: 100 µM; IC50 (Phosphodiesterase 1): 68 µM
0.32 µM | c1ccc(CNc2nc(-c3ccccc3)nc3ccccc23)cc1 | IC50 (Phosphodiesterase 4): 8.2 µM; IC50 (Phosphodiesterase 3): > 100 µM; IC50 [2]: 24 µM; IC50 (Phosphodiesterase 1): 22.5 µM
0.74 µM | Clc1ccc(CNc2nc(-c3ccccc3)nc3ccccc23)cc1 | –
0.0026 µM | O=[N+]([O-])c1ccc2nc(-n3ccnc3)nc(NCc3ccccc3)c2c1 | –
0.0023 µM | Brc1ccc2nc(-n3ccnc3)nc(NCc3ccccc3)c2c1 | –
0.8 µM | Clc1cccc(CNc2nc(-c3ccccc3)nc3ccccc23)c1 | –
0.21 µM | c1csc(CNc2nc(-n3ccnc3)nc3ccccc23)c1 | –
0.165 µM | Fc1ccc2nc(-c3cccnc3)nc(NCc3ccccc3)c2c1 | –

IC50 [1] | SMILES | also measured
4.7 µM | c1ccc(-c2nc(NCc3ccco3)c3ccccc3n2)cc1 | –
1.9 µM | c1ccc(CCNc2nc(-c3ccccc3)nc3ccccc23)cc1 | –
0.016 µM | COc1ccc2nc(-n3ccnc3)nc(NCc3ccccc3)c2c1.Cl.Cl | IC50 (Phosphodiesterase 4): 3.3 µM; ED50 (Rattus norvegicus [3]): 2.6 mg/kg; IC50 (Thromboxane-A synthase): 2.5 µM; IC50 (Phosphodiesterase 3): 2 µM; IC50 (Rattus norvegicus [4]): 0.83 µM; IC50 [2]: > 3 µM; IC50 (Phosphodiesterase 1): 2.8 µM
11 µM | c1ccc(-c2nc(NCc3ccccn3)c3ccccc3n2)cc1 | –
14 µM | CN(Cc1ccccc1)c1nc(-c2ccccc2)nc2ccccc12 | –
20 µM | CN(c1ccccc1)c1nc(-c2ccccc2)nc2ccccc12 | –
2.3 µM | c1ccc(Nc2nc(-c3ccco3)nc3ccccc23)cc1 | –
0.54 µM | c1ccc(CCNc2nc(-c3cccnc3)nc3ccccc23)cc1 | –
8.8 µM | c1ccc(-c2nc(NCC3CCCO3)c3ccccc3n2)cc1 (stereo not given) | –
0.19 µM | COC(=O)c1cccc(Nc2nc(-c3ccccc3)nc3ccccc23)c1 | –
5.5 µM | Clc1ccccc1Nc1nc(-c2ccccc2)nc2ccccc12 | –
0.72 µM | c1ccc(CNc2nc(-c3cccs3)nc3ccccc23)cc1 | IC50 (Phosphodiesterase 4): 7.6 µM; IC50 (Phosphodiesterase 3): > 100 µM; IC50 [2]: 21 µM; IC50 (Phosphodiesterase 1): 13 µM
0.026 µM | Cl.Cl.Clc1ccc2nc(-c3cccnc3)nc(NCc3ccccc3)c2c1 | IC50 (Phosphodiesterase 4): > 50 µM; IC50 (Phosphodiesterase 3): > 50 µM; IC50 [2]: > 50 µM; IC50 (Phosphodiesterase 1): > 50 µM
0.86 µM | c1ccc(CCNc2nc(-n3ccnc3)nc3ccccc23)cc1 | –
8.6 µM | c1ccc(-c2nc(NCc3cccnc3)c3ccccc3n2)cc1 | –
2.15 µM | Clc1ccc(Nc2nc(-c3ccccc3)nc3ccccc23)cc1 | –
– | Cl.Cl.Clc1ccc2nc(-n3ccnc3)nc(NCc3ccccc3)c2c1 | IC50 (Phosphodiesterase 4): > 3 µM; IC50 (Phosphodiesterase 3): > 3 µM; IC50 [2]: > 3 µM; IC50 (Phosphodiesterase 1): > 3 µM
0.23 µM | c1ccc2c(NCC3CCCCC3)nc(-n3ccnc3)nc2c1 | –
4.3 µM | CCOC(=O)CCCNc1nc(-c2ccccc2)nc2ccccc12 | –
11 µM | c1ccc(CNc2nc(C3CCCCC3)nc3ccccc23)cc1 | –

IC50 [1] | SMILES | also measured
0.31 µM | c1ccc(CNc2nc(-c3ccncc3)nc3ccccc23)cc1 | IC50 (Phosphodiesterase 4): 7.5 µM; ED50 (Rattus norvegicus [3]): 11 mg/kg; IC50 (Cyclooxygenase): 14 µM; IC50 (Thromboxane-A synthase): 0.83 µM; IC50 (Phosphodiesterase 3): > 100 µM; IC50 (Rattus norvegicus [4]): 1.8 µM; IC50 [2]: 17 µM; IC50 (Phosphodiesterase 1): 7 µM
0.014 µM | CSc1ccc2nc(-n3ccnc3)nc(NCc3ccccc3)c2c1 | –
1.3 µM | C(=C\c1nc(NCc2ccccc2)c2ccccc2n1)/c1ccccc1 | –
0.26 µM | c1ccc(CNc2nc(-n3ccnc3)nc3ccccc23)cc1 | IC50 (Phosphodiesterase 4): 3.1 µM; ED50 (Rattus norvegicus [3]): 5.7 mg/kg; IC50 (Cyclooxygenase): 51 µM; IC50 (Thromboxane-A synthase): 0.22 µM; IC50 (Phosphodiesterase 3): 50 µM; IC50 (Rattus norvegicus [4]): 1.1 µM; IC50 [2]: 25 µM; IC50 (Phosphodiesterase 1): 14 µM
0.48 µM | Fc1ccc2c(NCc3ccccc3)nc(-c3cccnc3)nc2c1 | –
2.4 µM | c1ccc(-c2nc(NC3CCCC3)c3ccccc3n2)cc1 | –
13 µM | c1ccc(-c2nc(Nc3cccnc3)c3ccccc3n2)cc1 | –
0.86 µM | COC(=O)c1ccc(Nc2nc(-c3ccccc3)nc3ccccc23)cc1 | –
0.45 µM | c1ccc(CNc2nc(-c3cccnc3)nc3ccccc23)cc1 | IC50 (Phosphodiesterase 4): 9 µM; ED50 (Rattus norvegicus [3]): > 30 mg/kg; IC50 (Cyclooxygenase): 50 µM; IC50 (Thromboxane-A synthase): 5.8 µM; IC50 (Phosphodiesterase 3): > 100 µM; IC50 (Rattus norvegicus [4]): > 10 µM; IC50 [2]: 19 µM; IC50 (Phosphodiesterase 1): 21 µM
2.8 µM | c1cncc(CNc2nc(-c3cccnc3)nc3ccccc23)c1 | –
0.42 µM | O=[N+]([O-])c1cccc(Nc2nc(-c3ccccc3)nc3ccccc23)c1 | –
1 µM | Clc1cccc(Nc2nc(-c3ccccc3)nc3ccccc23)c1 | –
0.76 µM | COc1cccc(Nc2nc(-c3ccccc3)nc3ccccc23)c1 | –
0.8 µM | Clc1ccccc1CNc1nc(-c2ccccc2)nc2ccccc12 | –
0.63 µM | c1coc(CNc2nc(-n3ccnc3)nc3ccccc23)c1 | –
5 µM | c1cncc(-c2nc(NCC3CCCO3)c3ccccc3n2)c1 (stereo not given) | –
0.072 µM | COc1ccc2nc(-n3ccnc3)nc(NCc3ccco3)c2c1 | –
0.36 µM | c1cncc(-c2nc(NCc3cccs3)c3ccccc3n2)c1 | –

— ChEMBL document CHEMBL1128541 (J Med Chem, 1995)
